Reference: PubChem BioAssay (NCI)
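Tested at 5 concentrations; 48 h exposure; 96-well plates; endpoints linearly interpolated, else capped at highest concentration. GI50 = concentration required for 50% inhibition of growth. TGI: total growth inhibition.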

Columns and labels:
Test in all cases: inhibition of tumour cell growth, NCI panel, 48 h
BT-549 breast = tested on: BT-549 breast
MCF7 breast = tested on: MCF7 breast
MDA-MB-231 breast = tested on: MDA-MB-231 breast
T-47D breast = tested on: T-47D breast

O=C(/C=C/c1ccc(Cl)cc1Cl)c1ccc(Cl)cc1Cl
GI50 (BT-549 breast): 16 µM
TGI (BT-549 breast): 36.1 µM
GI50 (MCF7 breast): 7.88 µM
TGI (MCF7 breast): > 24 µM
GI50 (MDA-MB-231 breast): 4.5 µM
TGI (MDA-MB-231 breast): 27 µM
GI50 (T-47D breast): 24.2 µM
TGI (T-47D breast): > 72.7 µM

COc1ccc(F)cc1-c1ccnc2[nH]c(C3=CCN(C4CCC(CC(=O)O)CC4)CC3)cc12 (stereo unspecified)
GI50 (BT-549 breast): 0.156 µM
TGI (BT-549 breast): 0.903 µM
GI50 (MCF7 breast): 0.0625 µM
TGI (MCF7 breast): 26.9 µM
GI50 (MDA-MB-231 breast): 0.205 µM
GI50 (T-47D breast): 0.187 µM
TGI (T-47D breast): > 100 µM

CN(C)CCOc1ccc2c(c1)C(=O)/C(=C\c1ncc([N+](=O)[O-])n1C)C2
GI50 (BT-549 breast): 0.146 µM
TGI (BT-549 breast): 0.529 µM
GI50 (MCF7 breast): 0.216 µM
TGI (MCF7 breast): 2.5 µM
GI50 (MDA-MB-231 breast): 0.418 µM
TGI (MDA-MB-231 breast): 2.33 µM
GI50 (T-47D breast): 1.76 µM
TGI (T-47D breast): 11.4 µM

c1ccc(-c2cc3n4c(-c5ccccc5)nn(-c5ccccc5)c4cnc-3n2)cc1
GI50 (BT-549 breast): 48.6 µM
TGI (BT-549 breast): > 50 µM
GI50 (MCF7 breast): 4.26 µM
TGI (MCF7 breast): > 50 µM
GI50 (MDA-MB-231 breast): 16.4 µM
TGI (MDA-MB-231 breast): > 50 µM

Cn1cccc1-c1cc(-c2ccccc2)nc(N)c1C#N
GI50 (BT-549 breast): 67.5 µM
TGI (BT-549 breast): > 100 µM
GI50 (MCF7 breast): > 100 µM
TGI (MCF7 breast): > 100 µM
GI50 (MDA-MB-231 breast): > 82 µM
TGI (MDA-MB-231 breast): > 100 µM
GI50 (T-47D breast): > 100 µM
TGI (T-47D breast): > 100 µM

CC(=O)/C(=C/N1CCN(C(=O)c2ccco2)C1=S)C(=O)c1ccccc1
GI50 (BT-549 breast): 5.54 µM
TGI (BT-549 breast): 18.1 µM
GI50 (MCF7 breast): 1.25 µM
TGI (MCF7 breast): 4.2 µM
GI50 (MDA-MB-231 breast): 9.46 µM
TGI (MDA-MB-231 breast): 19.8 µM
GI50 (T-47D breast): 4.29 µM
TGI (T-47D breast): > 50 µM

CC1=C(SCCC(=O)OC(C[Se]C2=C(C)C(=O)c3ccccc3C2=O)C(=O)NC(C)(C)C)C(=O)c2ccccc2C1=O (stereo unspecified)
GI50 (BT-549 breast): 1.64 µM
TGI (BT-549 breast): 3.05 µM
GI50 (MCF7 breast): 1.62 µM
TGI (MCF7 breast): 3.65 µM
GI50 (MDA-MB-231 breast): 1.49 µM
TGI (MDA-MB-231 breast): 2.94 µM
GI50 (T-47D breast): 0.904 µM
TGI (T-47D breast): 2.95 µM

CCCCCCCCc1cc(O)ccc1O
GI50 (BT-549 breast): 10.9 µM
TGI (BT-549 breast): 23.3 µM
GI50 (MCF7 breast): 24.8 µM
TGI (MCF7 breast): 66.8 µM
GI50 (MDA-MB-231 breast): 13 µM
TGI (MDA-MB-231 breast): 27.3 µM
GI50 (T-47D breast): 14.2 µM
TGI (T-47D breast): 37.6 µM

CNC(=O)c1cc(-c2ccc(F)cc2)cc(-c2ccc(S(=O)(=O)N3CCCC3)cc2)c1N
GI50 (BT-549 breast): > 21.2 µM
TGI (BT-549 breast): > 25 µM
GI50 (MCF7 breast): 8.79 µM
TGI (MCF7 breast): > 25 µM
GI50 (MDA-MB-231 breast): > 20.8 µM
TGI (MDA-MB-231 breast): > 25 µM
GI50 (T-47D breast): 10.5 µM
TGI (T-47D breast): > 25 µM

CCOC(=O)N(O)c1ccc(/C=C/c2ccccc2)cc1
GI50 (BT-549 breast): 9.38 µM
TGI (BT-549 breast): 40 µM
GI50 (MCF7 breast): 0.341 µM
TGI (MCF7 breast): 14.6 µM
GI50 (MDA-MB-231 breast): 9.39 µM
TGI (MDA-MB-231 breast): 39.9 µM
GI50 (T-47D breast): 0.452 µM
TGI (T-47D breast): 8.81 µM

C[C@@H](C[C@H](CCO)c1ccccc1)c1ccc2ccccc2c1
GI50 (BT-549 breast): 1.68 µM
TGI (BT-549 breast): 3.1 µM
GI50 (MCF7 breast): 1.97 µM
TGI (MCF7 breast): 4.04 µM
GI50 (MDA-MB-231 breast): 1.6 µM
TGI (MDA-MB-231 breast): 3.19 µM
GI50 (T-47D breast): 1.44 µM
TGI (T-47D breast): 3.11 µM

O=S(=O)(Nc1ccc(Cl)c(Cl)c1)c1ccc(-c2cnc(C3CC3)o2)cc1
GI50 (BT-549 breast): 0.911 µM
TGI (BT-549 breast): 18.2 µM
GI50 (MCF7 breast): 0.289 µM
TGI (MCF7 breast): 18.3 µM
GI50 (MDA-MB-231 breast): 1.59 µM
TGI (MDA-MB-231 breast): 15.8 µM
GI50 (T-47D breast): 0.349 µM
TGI (T-47D breast): 18.6 µM

C[C@@H]1Cc2c(ccc3[nH]ncc23)[C@@H](c2ccc(NC3CN(CCCF)C3)cn2)N1CC(F)(F)F
GI50 (BT-549 breast): 16 µM
TGI (BT-549 breast): 37.2 µM
GI50 (MCF7 breast): < 0.01 µM
TGI (MCF7 breast): 16.1 µM
GI50 (MDA-MB-231 breast): 17 µM
TGI (MDA-MB-231 breast): 34.5 µM
GI50 (T-47D breast): < 0.01 µM
TGI (T-47D breast): 23.2 µM

C=Cc1cc(OC)c2c(c1)c(=O)oc1c2cc(OC)c2c(O)ccc(C3OC(C(C)O)C(O)C3O)c21 (stereo unspecified)
GI50 (BT-549 breast): 0.00769 µM
TGI (BT-549 breast): 0.0391 µM
GI50 (MCF7 breast): 0.000944 µM
TGI (MCF7 breast): 0.321 µM
GI50 (MDA-MB-231 breast): 0.0438 µM
TGI (MDA-MB-231 breast): > 1 µM
GI50 (T-47D breast): 0.00812 µM
TGI (T-47D breast): 0.08 µM

CCSc1nc(N)c2cnn(CC)c2n1
GI50 (MCF7 breast): 16.6 µM
TGI (MCF7 breast): 79 µM
GI50 (MDA-MB-231 breast): 2.08 µM
TGI (MDA-MB-231 breast): 7.29 µM
GI50 (T-47D breast): 17.3 µM
TGI (T-47D breast): > 100 µM

CC(=O)OC1=C(CC(C)(C)C)C(=O)c2ccccc2C1=O
TGI (MCF7 breast): > 100 µM
TGI (MDA-MB-231 breast): > 100 µM
TGI (T-47D breast): > 100 µM

O=C(N/N=C/c1ccc(N(CCCl)CCCl)cc1)c1ccc(C(=O)N/N=C/c2ccc(N(CCCl)CCCl)cc2)cc1
GI50 (BT-549 breast): 2.34 µM
TGI (BT-549 breast): 76.5 µM
GI50 (MCF7 breast): 0.38 µM
TGI (MCF7 breast): > 100 µM
GI50 (MDA-MB-231 breast): 4.73 µM
TGI (MDA-MB-231 breast): > 100 µM
GI50 (T-47D breast): 5.54 µM
TGI (T-47D breast): > 100 µM

C=C(CN1CCN(c2ccc(F)c(Cl)c2)CC1)c1ccc(C(=O)Nc2ccccc2N)cc1
GI50 (BT-549 breast): 3.51 µM
TGI (BT-549 breast): 26.5 µM
GI50 (MCF7 breast): 5.17 µM
TGI (MCF7 breast): > 100 µM
GI50 (MDA-MB-231 breast): 1.81 µM
TGI (MDA-MB-231 breast): 6.81 µM
GI50 (T-47D breast): > 100 µM
TGI (T-47D breast): > 100 µM

Cc1c2ccccc2c(C)n2c1nc1cc(Cl)c(Cl)cc12
GI50 (BT-549 breast): > 100 µM
TGI (BT-549 breast): > 100 µM
GI50 (MCF7 breast): 1.09 µM
TGI (MCF7 breast): > 100 µM
GI50 (MDA-MB-231 breast): 72.5 µM
TGI (MDA-MB-231 breast): > 100 µM
GI50 (T-47D breast): 3.95 µM
TGI (T-47D breast): > 100 µM

Cc1cn2cc(-c3ccc4c(c3)CC(=O)N4)nc2s1
GI50 (BT-549 breast): > 100 µM
TGI (BT-549 breast): > 100 µM
GI50 (MDA-MB-231 breast): > 100 µM
TGI (MDA-MB-231 breast): > 100 µM
GI50 (T-47D breast): 43.4 µM
TGI (T-47D breast): > 100 µM

CNc1nc(-c2ccc3c(N)n[nH]c3c2)cc(N2C[C@@H](C(=O)NC3CCCCC3)CC[C@H]2C)n1
GI50 (BT-549 breast): 1.91 µM
TGI (BT-549 breast): 12.3 µM
GI50 (MCF7 breast): 0.996 µM
TGI (MCF7 breast): 11.2 µM
GI50 (MDA-MB-231 breast): 2.61 µM
TGI (MDA-MB-231 breast): 15.7 µM
GI50 (T-47D breast): 0.13 µM
TGI (T-47D breast): 5.3 µM
